Columns and labels:
[1] = tested on: H1975 (lung) cells; assay: MTT cytotoxicity assay on H1975 cells; assay type: cell-based, human; settings: for IC50: MTT, 72 h continuous exposure, triplicate, range 0.05 to 50 µM; for Selectivity Index (SI) (Vero/H1975): ratio IC50 (Vero)/IC50 (H1975)
Method: (§1) The potential in vitro antitumor activity of compounds 4a–l was initially tested for their cytotoxic effects on H1975, HL-60, HCT116 and HeLa cancer cell lines and Vero cells. […]
(§2) Cancer cell lines were grown at 37 °C in humidified atmosphere and 5% CO2. H1975, HL60, HTC116 and Vero cells were grown in RPMI 1640 culture medium supplemented with 10% fetal bovine serum and (100 UI/mL) penicillin-streptomicyn. HeLa cells were grown in EMEM culture medium, supplemented with 10% fetal bovine serum and (100 UI/mL) penicillin-streptomicyn.
(§3) Cytotoxicity assays were performed by using the MTT reduction method as described previously. Briefly, cancer cell lines were plated in a flat-bottom 96-wells plate at 10,000 cells per well density. […] Ten µL of MTT was added at a final concentration of 0.5 mg/mL, incubated at 37 °C for 4 h, and then solubilized with 10% sodium dodecyl sulfate (SDS) in 0.1 mM HCl and incubated overnight at 37 °C. Formazan formation was measured at 570 nm in a multiwell reader (StatFax 4200, Awareness Technology, Inc. Palm City, FL, USA).
(§4) Values are expressed as means ± standard deviations from three independent experiments. IC50 values, (Compound concentration necessary to decrease at 50% the MTT reduction) and the two-way analysis of variance (ANOVA) test were performed when necessary with Prism GraphPad 6.0f software (GraphPad Software Inc., San Diego, CA, USA).

[2] = tested on: HL-60 (leukemia) cells; assay: MTT cytotoxicity assay on HL-60 cells; assay type: cell-based, human; settings: 72 h continuous exposure, triplicate, range 0.05 to 50 µM
Method: as §1, §2, §3, §4

[3] = tested on: HCT116 (colorectal) cells; assay: MTT cytotoxicity assay on HCT116 cells; assay type: cell-based, human; settings: for IC50: MTT, 72 h continuous exposure, triplicate, range 0.05 to 50 µM; for Selectivity Index (SI) (Vero/HCT116): ratio IC50 (Vero)/IC50 (HCT116)
Method: as §1, §2, §3, §4

[4] = tested on: HeLa cells; assay: MTT cytotoxicity assay on HeLa cells; assay type: cell-based, human; settings: for IC50: MTT, 72 h continuous exposure, triplicate, range 0.05 to 50 µM; for Selectivity Index (SI) (Vero/HeLa): ratio IC50 (Vero)/IC50 (HeLa)
Method: as §1, §2, §3, §4

[5] = tested on: Vero cells; assay: MTT cytotoxicity assay on Vero cells; assay type: cell-based; settings: Chlorocebus sabaeus, 72 h continuous exposure, triplicate, range 0.05 to 50 µM
[6] = tested on: H1975 cells; assay: Apoptosis/viability assay by FACS with propidium iodide, H1975; assay type: cell-based, human; settings: H1975, 50 µM, 16 h, PI staining
Method: (§5) To evaluate sensitivity to 4f, 4j and 4k, Vero, HTC116, H1975 and Hela were treated with concentrations of 50 µM for 16 h. Fifty µM etoposide was used as positive control. As it can be seen in Figure 5, 4f, 4j and 4k induced apoptosis as a prevalent type of cell death, in high percentages (>70%), in every cancer cell line. Moreover, 4f, 4j, and 4k induced an apoptotic cell response greater than etoposide.
(§6) Cell viability was analyzed by FACS as previously described. In this assay, after setting the baseline to exclude cell debris, cells impermeable to propidium iodide (PI negative) are considered as viable. Two populations of PI-permeable dead cells are distinguished based on fluorescence intensity, corresponding to either hypodiploid apoptotic cells or necrotic cells with intact DNA. Here, H1975, HTC116, and HeLa cells were incubated with concentrations of 50 µM of each compound for 16 h at 37 °C. Cells were harvested and stained with 10 µg/mL of propidium iodide to determine cell viability. Samples containing roughly 1 × 10^4 cells were evaluated by flow cytometry (FACScanto II; Becton Dickinson, Mountain View, CA, USA) and analyzed using the software program FCS Express v5.

[7] = tested on: HTC116 cells; assay: Apoptosis/viability assay by FACS with propidium iodide, HTC116; assay type: cell-based, human; settings: HTC116, 50 µM, 16 h, PI staining
Method: as §5, §6

[8] = tested on: HeLa cells; assay: Apoptosis/viability assay by FACS with propidium iodide, HeLa; assay type: cell-based, human; settings: 50 µM, 16 h, PI staining
Method: as §5, §6

| Structure (SMILES) | IC50 ([1]; Homo sapiens, NCI-H1975, 72 h) [µM] | Selectivity Index (SI) (Vero/H1975) [1] | IC50 ([2]; Homo sapiens, HL-60, 72 h) [µM] | IC50 ([3]; Homo sapiens, HCT-116, 72 h) [µM] | Selectivity Index (SI) (Vero/HCT116) [3] | IC50 ([4]; Homo sapiens, HeLa, 72 h) [µM] | Selectivity Index (SI) (Vero/HeLa) [4] | IC50 [5] [µM] | apoptosis (percentage of cells) [6] [%] | apoptosis (percentage of cells) [7] [%] | apoptosis (percentage of cells) [8] [%] | melting point [°C] | IC50 [1] [µM] | IC50 [2] [µM] | IC50 [3] [µM] | IC50 [4] [µM] |
| --- | --- | --- | --- | --- | --- | --- | --- | --- | --- | --- | --- | --- | --- | --- | --- | --- |
| CCCCCCn1cnc2c(NCc3ccccc3)nc(NCc3ccccc3)nc21 [Compound 4f, N^2,N^6-Dibenzyl-9-hexyl-9H-purine-2,6-diamine] | 9.9 ± 0.18 | 2.63 | > 50 | 3 ± 0.12 | 8.67 | 5.3 ± 0.13 | 4.91 | 26 ± 0.12 | > 70 | > 70 | > 70 |  |  |  |  |  |
| CCCCCn1cnc2c(NCc3ccc(OC)cc3)nc(NCc3ccccc3)nc21 [Compound 4j, N^2-Benzyl-N^6-(4-methoxybenzyl)-9-pentyl-9H-purine-2,6-diamine] | 2.3 ± 0.13 | 11.30 | > 50 | 8 ± 0.21 | 3.25 | 9.5 ± 0.14 | 2.74 | 26 ± 0.18 | > 70 | > 70 | > 70 |  |  |  |  |  |
| COc1ccc(CNc2nc(NCc3ccccc3)nc3c2ncn3CCC(C)C)cc1 [Compound 4k, N^2-Benzyl-9-isopentyl-N^6-(4-methoxybenzyl)-9H-purine-2,6-diamine] | 5.6 ± 0.23 | 6.07 | > 50 | 11 ± 0.26 | 3.09 | 5.4 ± 0.32 | 6.30 | 34 ± 0.13 | > 70 | > 70 | > 70 |  |  |  |  |  |
| CC(C)CCn1cnc2c(NCc3ccccc3)nc(NCc3ccccc3)nc21 [Compound 4e, N^2,N^6-Dibenzyl-9-isopentyl-9H-purine-2,6-diamine] | 8.6 ± 0.18 | 0.29 | > 50 | 5.1 ± 0.14 | 0.49 | 2.7 ± 0.13 | 0.93 | 2.5 ± 0.14 |  |  |  | 69 to 70 |  |  |  |  |
| COc1cc([C@@H]2c3cc4c(cc3[C@@H](O[C@@H]3O[C@@H]5CO[C@@H](C)O[C@H]5[C@H](O)[C@H]3O)[C@H]3COC(=O)[C@H]23)OCO4)cc(OC)c1O [Etoposide, reference compound] | 8 ± 0.33 |  | 6.2 ± 0.18 | 2.8 ± 0.24 |  | 8.2 ± 0.33 |  | > 25 |  |  |  |  |  |  |  |  |
| CCCCCn1cnc2c(NCc3ccccc3)nc(NCc3ccccc3)nc21 [Compound 4d, N^2,N^6-Dibenzyl-9-pentyl-9H-purine-2,6-diamine] | 12 ± 0.19 | 0.21 | > 50 | 11 ± 0.11 | 0.23 | 10.1 ± 0.14 | 0.25 | 2.5 ± 0.2 |  |  |  | 83 to 86 |  |  |  |  |
| CCCCn1cnc2c(NCc3ccc(OC)cc3)nc(NCc3ccccc3)nc21 [Compound 4h, N^2-Benzyl-9-butyl-N^6-(4-methoxybenzyl)-9H-purine-2,6-diamine] | 11 ± 0.25 |  | > 50 | 7 ± 0.16 |  | 6.3 ± 0.17 |  | 17 ± 0.2 |  |  |  |  |  |  |  |  |
| COc1ccc(CNc2nc(NCc3ccccc3)nc3c2ncn3CC(C)C)cc1 [Compound 4i, N^2-Benzyl-9-isobutyl-N^6-(4-methoxybenzyl)-9H-purine-2,6-diamine] | 3.4 ± 0.28 | 0.56 | > 50 | 1.6 ± 0.12 | 1.19 | 4.9 ± 0.16 | 0.39 | 1.9 ± 0.24 |  |  |  | 110 to 112 |  |  |  |  |
| CC(C)Cn1cnc2c(NCc3ccccc3)nc(NCc3ccccc3)nc21 [Compound 4c, N^2,N^6-Dibenzyl-9-isobutyl-9H-purine-2,6-diamine] | > 36 | 0.61 | > 36 | > 36 |  | > 36 |  | 22 ± 0.23 |  |  |  | 111 to 113 | 36 ± 0.27 | > 50 | > 50 | > 50 |
| CC(C)n1cnc2c(NCc3ccccc3)nc(NCc3ccccc3)nc21 [Compound 4a, N^2,N^6-Dibenzyl-9-isopropyl-9H-purine-2,6-diamine] | 14 ± 0.26 | 1.43 | 26 ± 0.13 | 13 ± 0.12 | 1.54 | 32 ± 0.13 | 0.63 | 20 ± 0.11 |  |  |  |  |  |  |  |  |
| CCCCCCn1cnc2c(NCc3ccc(OC)cc3)nc(NCc3ccccc3)nc21 [Compound 4l, N^2-Benzyl-9-hexyl-N^6-(4-methoxybenzyl)-9H-purine-2,6-diamine] | > 50 |  | > 50 | 6.8 ± 0.14 |  | 9 ± 0.13 |  | 15 ± 0.06 |  |  |  |  |  |  |  |  |
| COc1ccc(CNc2nc(NCc3ccccc3)nc3c2ncn3C(C)C)cc1 [Compound 4g, N^2-Benzyl-9-isopropyl-N^6-(4-methoxybenzyl)-9H-purine-2,6-diamine] | > 50 |  | 22 ± 0.13 | 7.1 ± 0.11 | 2.11 | 10.7 ± 0.18 | 1.40 | 15 ± 0.23 |  |  |  | 69 to 70 |  |  |  |  |
| CCCCn1cnc2c(NCc3ccccc3)nc(NCc3ccccc3)nc21 [Compound 4b, N^2,N^6-Dibenzyl-9-butyl-9H-purine-2,6-diamine] | 28 ± 0.08 | 0.20 | > 50 | 7.2 ± 0.16 | 0.78 | 18 ± 0.14 | 0.31 | 5.6 ± 0.15 |  |  |  | 113 to 115 |  |  |  |  |
